Assay results published in ChEMBL document CHEMBL1201862, “PubChem BioAssay data set” (2004).
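96-well plates; 48 h exposure; 5 concentrations. Endpoints by linear interpolation between flanking doses. Not reached: highest tested concentration assigned. GI50 marks 50% less growth.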 Active and inactive are the calls of the source. No stated cut-off is given here; in the data, active = GI50 up to about 1.1 µM and inactive = higher.

What was measured:
Assay in all cases: growth of human tumour cells (NCI), 48 h
DLD-1 = test system: DLD-1
DMS-114 = test system: DMS-114
DMS-273 = test system: DMS-273
HOP-18 = test system: HOP-18
KM-20L2 = test system: KM-20L2
LXFL 529 = test system: LXFL 529
RXF 631 = test system: RXF 631
SNB-78 = test system: SNB-78
XF498 = test system: XF498

Structure (SMILES) | GI50 (DLD-1) | GI50 (DMS-114) | GI50 (DMS-273) | GI50 (HOP-18) | GI50 (KM-20L2) | GI50 (LXFL 529) | GI50 (RXF 631) | GI50 (SNB-78) | GI50 (XF498)
COCCOCOC(C)(C)[C@H](CCOC(C)=O)O[Si](c1ccccc1)(c1ccccc1)C(C)(C)C | 13.5 µM (inactive) | 12.6 µM (inactive) | 5.3 µM (inactive) | 30.3 µM (inactive) | 18.7 µM (inactive) | 7.33 µM (inactive) | 13.4 µM (inactive) | 22.9 µM (inactive) | –
Cc1ccc(-n2nc(C(OC3OC(CO)C(O)C(O)C3O)C(O)CO)c3nc4cc(C)c(C)cc4nc32)cc1 (configuration not stated) | > 100 µM (inactive) | > 100 µM (inactive) | – | – | > 100 µM (inactive) | > 100 µM (inactive) | > 100 µM (inactive) | > 100 µM (inactive) | > 100 µM (inactive)
CCCC(=O)N[C@H]1C2C3CC4C5CC(C42)C1(C)C53 (some centres not stated) | > 100 µM (inactive) | – | > 100 µM (inactive) | > 100 µM (inactive) | > 100 µM (inactive) | – | – | > 100 µM (inactive) | –
NC(=O)Cn1c(=O)[nH]c(=O)c2[nH]cnc21 | – | > 100 µM (inactive) | > 100 µM (inactive) | > 100 µM (inactive) | > 100 µM (inactive) | > 100 µM (inactive) | – | – | –
N#CC(/C(CCC(=O)Nc1ccc(Cl)cc1)=N/NC(=O)c1cc2ccccc2cc1O)c1ccccc1 (configuration not stated) | 33.7 µM (inactive) | 25.4 µM (inactive) | – | 21.5 µM (inactive) | 28.6 µM (inactive) | 43 µM (inactive) | – | 66.1 µM (inactive) | 54.8 µM (inactive)
O=C(NCCCCCCNC(=O)OCCSCCn1cc(C(=O)NC(=O)OCc2ccccc2)c(=O)[nH]c1=O)OCCSCCn1cc(C(=O)NC(=O)OCc2ccccc2)c(=O)[nH]c1=O | > 100 µM (inactive) | > 100 µM (inactive) | > 100 µM (inactive) | – | > 100 µM (inactive) | > 100 µM (inactive) | > 100 µM (inactive) | > 100 µM (inactive) | > 100 µM (inactive)
N#CC(C#N)=C1NC(=O)C(c2ccccc2)C(=O)N1 (configuration not stated) | > 100 µM (inactive) | > 100 µM (inactive) | > 100 µM (inactive) | – | > 100 µM (inactive) | > 100 µM (inactive) | > 100 µM (inactive) | > 100 µM (inactive) | > 100 µM (inactive)
Cc1cccc(NC(=O)/C(=N\N)C(c2cnc3ccc([N+](=O)[O-])cc3n2)[N+](=O)[O-])c1C (configuration not stated) | > 100 µM (inactive) | 51.3 µM (inactive) | > 100 µM (inactive) | > 100 µM (inactive) | 71.8 µM (inactive) | > 100 µM (inactive) | > 100 µM (inactive) | – | > 100 µM (inactive)
CCCCNCC(=O)O[C@]1(CC)C(=O)OCc2c1cc1n(c2=O)Cc2cc3ccccc3nc2-1 | 3.3 µM (inactive) | 0.121 µM (active) | < 0.01 µM (active) | 0.44 µM (active) | 1.24 µM (inactive) | 3.21 µM (inactive) | 1.7 µM (inactive) | 2.43 µM (inactive) | 0.305 µM (active)
O=C1NCC2=C1CCC1c3ccccc3CCN21 (configuration not stated) | > 100 µM (inactive) | > 100 µM (inactive) | > 100 µM (inactive) | – | > 100 µM (inactive) | > 100 µM (inactive) | – | > 100 µM (inactive) | > 100 µM (inactive)
C[C@]12CCC(=O)C=C1CC[C@@H]1[C@@H]2C(=O)C[C@@]2(C)[C@H]1CC[C@]2(O)C(=O)CO [CORTISONE] | > 100 µM (inactive) | > 100 µM (inactive) | > 100 µM (inactive) | > 100 µM (inactive) | > 100 µM (inactive) | > 100 µM (inactive) | – | – | > 100 µM (inactive)
Cc1ccc(Nc2nc3c(s2)C(=O)c2ccccc2C3=O)c(C)c1 | 15.1 µM (inactive) | 8.59 µM (inactive) | 19.6 µM (inactive) | 4.57 µM (inactive) | 37.3 µM (inactive) | 15 µM (inactive) | – | 15.2 µM (inactive) | 17.3 µM (inactive)
